# pIC50: −log10 of the molar value.
# Biological target: human MAT2A enzyme (Homo sapiens (Human), UniProt P31153)
# Assay: In vitro enzymatic inhibition activity assay on MAT2A (PiColorLock phosphate detection)
# Assay type: biochemical
# Conditions: purified human MAT2A 10 nM, ATP 50 μM, L-methionine 100 μM, 6 h at 23° C.; read-out: MAT2A inhibitory activity IC50
# In short: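 Purified human MAT2A (10 nM) turned L-methionine (100 μM) and ATP (50 μM) into SAM in Tris-HCl pH 7.5 buffer with MgCl2, KCl and DTT for 6 h at 23 °C. Released phosphate was read colorimetrically at 630 nm. IC50 was fitted from an 8-point, 10-fold dilution series.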
# human MAT2A enzyme, sequence (P31153 whole entry): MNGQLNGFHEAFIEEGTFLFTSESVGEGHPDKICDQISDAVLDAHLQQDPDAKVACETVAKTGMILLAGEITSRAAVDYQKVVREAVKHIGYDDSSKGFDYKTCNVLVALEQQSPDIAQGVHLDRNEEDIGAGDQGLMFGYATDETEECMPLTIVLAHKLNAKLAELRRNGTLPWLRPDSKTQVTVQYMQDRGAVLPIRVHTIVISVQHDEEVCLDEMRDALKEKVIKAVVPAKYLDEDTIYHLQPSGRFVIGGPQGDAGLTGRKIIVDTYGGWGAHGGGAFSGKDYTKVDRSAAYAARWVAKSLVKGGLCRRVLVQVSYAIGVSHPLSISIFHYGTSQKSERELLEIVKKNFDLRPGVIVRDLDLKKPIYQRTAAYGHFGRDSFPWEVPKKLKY
row,SMILES,pIC50
1,"COC(=O)c1c(N)c2ccc(C3CC3)nc2n(-c2ccc(N)cc2)c1=O [Example 373, methyl 4-amino-1-(4-aminophenyl)-7-cyclopropyl-2-oxo-1,2-dihydro-1,8-naphthyridine-3-carboxylate]",8.98
2,"COC(=O)c1c(N)c2ccc(OC(C)C)nc2n(-c2ccc(Cl)cc2)c1=O [Example 388, methyl 4-amino-1-(4-chlorophenyl)-7-isopropoxy-2-oxo-1,2-dihydro-1,8-naphthyridine-3-carboxylate]",8.81
3,"COC(=O)c1c(N)c2ccc(I)cc2n(-c2ccc(C(C)O)nc2)c1=O (stereo not drawn) [Example 307, methyl 4-amino-1-(6-(1-hydroxyethyl)pyridin-3-yl)-2-oxo-7-iodo-1,2-dihydroquinoline-3-carboxylate]",8.94
4,"COC(=O)c1c(N)c2ccc(Cl)nc2n(-c2cccc3cnccc23)c1=O [Example 201, methyl 4-amino-7-chloro-1-(isoquinolin-5-yl)-2-oxo-1,2-dihydro-1,8-naphthyridine-3-carboxylate]",8.27
5,"COC(=O)c1c(N)c2ccc(C(F)(F)F)cc2n(-c2ccc(OC)nc2)c1=O [Example 212, methyl 4-amino-1-(6-methoxypyridin-3-yl)-2-oxo-7-(trifluoromethyl)-1,2-dihydroquinoline-3-carboxylate]",8.55
6,"COC(=O)c1c(N)c2ccc(Br)cc2n(-c2ccc(Cl)cc2C)c1=O [Example 152, methyl 4-amino-7-bromo-1-(4-chloro-2-methylphenyl)-2-oxo-1,2-dihydroquinoline-3-carboxylate]",8.79
7,"COC(=O)c1c(N)c2ccc(C(F)(F)F)cc2n(-c2ccc(N)nc2)c1=O [Example 182, methyl 4-amino-1-(6-aminopyridin-3-yl)-2-oxo-7-(trifluoromethyl)-1,2-dihydroquinoline-3-carboxylate]",8.94
8,"[2H]C([2H])([2H])OC(=O)c1c(N)c2ccc(OC(F)(F)F)cc2n(-c2ccc(N)cc2)c1=O [Example 391, methyl-d3 4-amino-1-(4-aminophenyl)-2-oxo-7-(trifluoromethoxy)-1,2-dihydroquinoline-3-carboxylate]",8.88
9,"COC(=O)c1c(N)c2ccc(OC(F)F)cc2n(-c2ccc(C(C)O)cc2)c1=O (stereo not drawn) [Example 335, methyl 4-amino-7-(difluoromethoxy)-1-(4-(1-hydroxyethyl)phenyl)-2-oxo-1,2-dihydroquinoline-3-carboxylate]",8.69
10,"COC(=O)c1c(N)c2ccc(C(F)(F)F)cc2n(-c2ccc(OC)cc2F)c1=O [Example 97, methyl 4-amino-1-(2-fluoro-4-methoxyphenyl)-2-oxo-7-(trifluoromethyl)-1,2-dihydroquinoline-3-carboxylate]",8.00
11,"COC(=O)c1c(N)c2ccc(Br)nc2n(-c2ccc(Cl)cc2C)c1=O [Example 287, methyl 4-amino-7-bromo-1-(4-chloro-2-methylphenyl)-2-oxo-1,2-dihydro-1,8-naphthyridine-3-carboxylate]",8.84
12,"COC(=O)c1c(N)c2ccc(C(F)(F)F)cc2n(-c2ccc(C)cc2C)c1=O [Example 149, methyl 4-amino-1-(2,4-dimethylphenyl)-2-oxo-7-(trifluoromethyl)-1,2-dihydroquinoline-3-carboxylate]",8.51
13,"COC(=O)c1c(N)c2ccc(Br)nc2n(-c2cnc(N)cc2C)c1=O [Example 280, methyl 4-amino-1-(6-amino-4-methylpyridin-3-yl)-7-bromo-2-oxo-1,2-dihydro-1,8-naphthyridine-3-carboxylate]",8.76
14,"COC(=O)c1c(N)c2ccc(C(F)(F)F)nc2n(-c2ccc(N)nc2C)c1=O [Example 308, methyl 4-amino-1-(6-amino-2-methylpyridin-3-yl)-2-oxo-7-(trifluoromethyl)-1,2-dihydro-1,8-naphthyridine-3-carboxylate]",8.62
15,"COC(=O)c1c(N)c2ccc(C(F)(F)F)cc2n(-c2ccc3ccccc3c2)c1=O [Example 26, methyl 4-amino-1-(naphthalen-2-yl)-2-oxo-7-(trifluoromethyl)-1,2-dihydro quinoline-3-carboxylate]",8.98
16,"COC(=O)c1c(N)c2ccc(C(F)(F)F)nc2n(-c2ccc3nccn3c2)c1=O [Example 309, methyl 4-amino-1-(imidazo[3,2-a]pyridin-6-yl)-2-oxo-7-(trifluoromethyl)-1,2-dihydro-1,8-naphthyridine-3-carboxylate]",8.69
17,"COC(=O)c1c(N)c2ccc(C(F)F)cc2n(-c2ccc(N)cc2)c1=O [Example 327, methyl 4-amino-1-(4-aminophenyl)-2-oxo-7-(difluoromethyl)-1,2-dihydro quinoline-3-carboxylate]",8.90
18,"COC(=O)c1c(N)c2ccc(C(F)(F)F)cc2n(-c2cccc3[nH]ccc23)c1=O [Example 229, methyl 4-amino-1-(1H-indol-4-yl)-2-oxo-7-(trifluoromethyl)-1,2-dihydroquinoline-3-carboxylate]",8.38

row,SMILES,pIC50
1,"COC(=O)c1c(N)c2ccc(Br)nc2n(-c2ccc(N)nc2)c1=O [Example 241, methyl 4-amino-1-(6-aminopyridin-3-yl)-7-bromo-2-oxo-1,2-dihydro-1,8-naphthyridine-3-carboxylate]",8.85
2,"[2H]C([2H])([2H])OC(=O)c1c(N)c2ccc(Br)cc2n(-c2ccc([C@@H](C)O)cc2)c1=O [Example 351, methyl-d3 (R)-4-amino-7-bromo-1-(4-(1-hydroxyethyl)phenyl)-2-oxo-1,2-dihydroquinolin-3-carboxylate]",8.98
3,"COC(=O)c1c(N)c2ccc(C(F)(F)F)nc2n(-c2ccc(C(C)O)cc2)c1=O (stereo not drawn) [Example 303, methyl 4-amino-1-(4-(1-hydroxyethyl)phenyl)-2-oxo-7-(trifluoromethyl)-1,2-dihydro-1,8-naphthyridine-3-carboxylate]",9.04
4,"COC(=O)c1c(N)c2ccc(Br)nc2n(-c2cnc(Cl)cc2C)c1=O [Example 296, methyl 4-amino-7-bromo-1-(6-chloro-4-methylpyridin-3-yl)-2-oxo-1,2-dihydro-1,8-naphthyridine-3-carboxylate]",8.70
5,"COC(=O)c1c(N)c2ccc(Br)cc2n(-c2cccc3c(Cl)nccc23)c1=O [Example 216, methyl 4-amino-1-(1-chloroisoquinolin-5-yl)-7-bromo-2-oxo-1,2-dihydroquinoline-3-carboxylate]",8.63
6,"[2H]C([2H])([2H])OC(=O)c1c(N)c2ccc(Br)cc2n(-c2ccc(C(C)O)cc2)c1=O (stereo not drawn) [Example 311, methyl-d3 4-amino-7-bromo-1-(4-(1-hydroxyethyl)phenyl)-2-oxo-1,2-dihydroquinoline-3-carboxylate]",9.22
7,"C=Cc1ccc2c(N)c(C(=O)OC)c(=O)n(-c3cccc4cnccc34)c2c1 [Example 185, methyl 4-amino-1-(isoquinolin-5-yl)-2-oxo-7-vinyl-1,2-dihydroquinoline-3-carboxylate]",8.05
8,"COC(=O)c1c(N)c2ccc(C(F)(F)F)nc2n(-c2cnc(Cl)cc2C)c1=O [Example 204, methyl 4-amino-1-(6-chloro-4-methylpyridin-3-yl)-2-oxo-7-(trifluoromethyl)-1,2-dihydro-1,8-naphthyridine-3-carboxylate]",8.34
9,"COC(=O)c1c(N)c2ccc(Br)nc2n(-c2ccc(N)cc2C)c1=O [Example 304, methyl 4-amino-1-(4-amino-2-methylphenyl)-7-bromo-2-oxo-1,2-dihydro-1,8-naphthyridine-3-carboxylate]",8.64
10,"COC(=O)c1c(N)c2ccc(C(F)(F)F)cc2n(-c2ccc3c(c2)CCC3O)c1=O (stereo not drawn) [Example 135, methyl 4-amino-1-(1-hydroxy-2,3-dihydro-1H-inden-5-yl)-2-oxo-7-(trifluoromethyl)-1,2-dihydroquinoline-3-carboxylate]",8.05
11,"Cc1ccccc1-n1c(=O)c(C(=O)OC2CC2)c(N)c2ccc(I)cc21 [Example 52, cyclopropyl 4-amino-7-iodo-1-(2-methylphenyl)-2-oxo-1,2-dihydroquinolin-3-carboxylate]",8.62
12,"COC(=O)c1c(N)c2ccc(C(F)(F)F)nc2n(-c2cccc3c(C)nccc23)c1=O [Example 319, methyl 4-amino-1-(1-methylisoquinolin-5-yl)-2-oxo-7-(trifluoromethyl)-1,2-dihydro-1,8-naphthyridine-3-carboxylate]",8.92
13,"COC(=O)c1c(N)c2ccc(C(F)(F)F)cc2n(-c2ccc(C)nc2)c1=O [Example 215, methyl 4-amino-1-(6-methylpyridin-3-yl)-2-oxo-7-(trifluoromethyl)-1,2-dihydroquinoline-3-carboxylate]",8.60
14,"COC(=O)c1c(N)c2ccc(Br)cc2n(-c2cccc(N)c2)c1=O [Example 284, methyl 4-amino-1-(3-aminophenyl)-7-bromo-2-oxo-1,2-dihydroquinoline-3-carboxylate]",8.61
15,"COC(=O)c1c(N)c2ccc(C3CC3)nc2n(-c2ccc(C(C)O)cc2)c1=O (stereo not drawn) [Example 360, methyl 4-amino-7-cyclopropyl-1-(4-(1-hydroxyethyl)phenyl)-2-oxo-1,2-dihydro-1,8-naphthyridine-3-carboxylate]",8.90
16,"[2H]C([2H])([2H])OC(=O)c1c(N)c2ccc(C(F)(F)F)cc2n(-c2ccc(N)cc2)c1=O [Example 412, methyl-d3 4-amino-1-(4-aminophenyl)-7-(trifluoromethyl)-2-oxo-1,2-dihydroquinoline-3-carboxylate]",9.01
17,"COC(=O)c1c(N)c2ccc(Br)cc2n(-c2ccc(N)cc2F)c1=O [Example 259, methyl 4-amino-1-(4-amino-2-fluorophenyl)-7-bromo-2-oxo-1,2-dihydro quinoline-3-carboxylate]",8.97
18,"COC(=O)c1c(N)c2ccc(C(F)(F)F)cc2n(-c2ccc3sccc3c2)c1=O [Example 153, methyl 4-amino-1-(benzo[b]thiophen-5-yl)-2-oxo-7-(trifluoromethyl)-1,2-dihydroquinoline-3-carboxylate]",8.58

# From US20250221979A1, “NOVEL HETEROCYCLIC COMPOUND” (SHOUYAO HOLDINGS (BEIJING) CO., LTD., priority 2022, published 2025)
